Results from patent US20220275274A1, “NEUTRAL FLUORESCENT MITOCHONDRIAL MARKER BASED ON NITROGEN-CONTAINING HETEROCYCLE, PREPARATION METHOD AND USE THEREOF” (SOOCHOW UNIVERSITY, priority 2020, published 2022).

Legend:
[1] = ultraviolet absorption and fluorescence emission in chloroform; assay type: physicochemical; conditions: 10 μM; for maximum emission wavelength (fluorescence spectrum): excitation wavelength and slit width per dye
Description: The ultraviolet absorption and fluorescence emission of the dyes prepared in the examples and comparative examples (at a concentration of 10 μM) in chloroform were tested. The horizontal ordinate is the wavelength, and the vertical ordinate is the absorbance and fluorescence intensity, respectively.
In the ultraviolet-visible absorption spectrum, dye 1a has the maximum absorption at 378 nm; and in the fluorescence spectrum, dye 1a has the highest fluorescence intensity at 452 nm, where the excitation wavelength is 370 nm, and the slit width is 3 nm/1.5 nm. In the ultraviolet-visible absorption spectrum, dye 1b has a maximum absorption wavelength of 382 nm; and in the fluorescence spectrum, dye 1b has a maximum emission wavelength of 485 nm, where the excitation wavelength is 374 nm, and the slit width is 3 nm/1.5 nm. In the ultraviolet-visible absorption spectrum, dye 1c has a maximum absorption wavelength of 385 nm; and in the fluorescence spectrum, dye 1c has a maximum emission wavelength of 454 nm, where the excitation wavelength is 380 nm, and the slit width is 3 nm/1.5 nm. In the ultraviolet-visible absorption spectrum, dye 2a has the maximum absorption at 364 nm; and in the fluorescence spectrum, dye 2a has the highest fluorescence intensity at 480 nm, where the excitation wavelength is 374 nm, and the slit width is 3 nm/1.5 nm. In the ultraviolet-visible absorption spectrum, dye 2b has a maximum absorption wavelength of 360 nm; and in the fluorescence spectrum, dye 2b has a maximum emission wavelength of 458 nm, where the excitation wavelength is 370 nm, and the slit width is 3 nm/1.5 nm. In the ultraviolet-visible absorption spectrum, dye 2c has a maximum absorption wavelength of 356 nm; and in the fluorescence spectrum, dye 2c has a maximum emission wavelength of 441 nm, where the excitation wavelength is 360 nm, and the slit width is 3 nm/3 nm. In the ultraviolet-visible absorption spectrum, dye 3a has the maximum absorption at 548 nm; and in the fluorescence spectrum, dye 3a has the highest fluorescence intensity at 606 nm, where the excitation wavelength is 560 nm, and the slit width is 1.5 nm/1.5 nm. In the ultraviolet-visible absorption spectrum, dye 3b has a maximum absorption wavelength of 549 nm; and in the fluorescence spectrum, dye 3b has a maximum emission wavelength of 608 nm, where the excitation wavelength is 540 nm, and the slit width is 1.5 nm/1.5 nm. In the ultraviolet-visible absorption spectrum, dye 3c has a maximum absorption wavelength of 554 nm; and in the fluorescence spectrum, dye 3c has a maximum emission wavelength of 611 nm, where the excitation wavelength is 540 nm, and the slit width is 1.5 nm/1.5 nm. In the ultraviolet-visible absorption spectrum, dye 3d has a maximum absorption wavelength of 556 nm; and in the fluorescence spectrum, dye 3d has a maximum emission wavelength of 619 nm, where the excitation wavelength is 570 nm, and the slit width is 1.5 nm/1.5 nm. In the ultraviolet-visible absorption spectrum, dye 4 has a maximum absorption wavelength of 501 nm; and in the fluorescence spectrum, dye 4 has a maximum emission wavelength of 515 nm, where the excitation wavelength is 495 nm, and the slit width is 1.5 nm/1.5 nm. The above UV absorption and fluorescence emission test methods are conventional methods.

HeLa cells = test: cell imaging, colocalization with red mitochondrial marker Mito Tracker Red CMXRos; assay type: cell-based; conditions: dye 1 μM, vs Mito Tracker Red CMXRos (100 nm); for colocalization coefficient: blue and red channel
Description: (§1) Dye 1a was formulated into a mother liquor in DMSO (dimethyl sulfoxide), and then added to a conventional cell culture medium to give a concentration of dye 1a in the cell culture medium of 1 μM. L929 cells and HeLa cells were respectively co-cultured for 10 min in an incubator at saturated humidity, 37° C., and 5% CO2 (the experiment was same below). The existing red mitochondrial marker Mito Tracker® Red CMXRos (100 nm) was added, and the cells were co-incubated for another 10 min, washed three times with a PBS buffer, and imaged under a laser confocal microscope. In the blue channel, light of 405 nm was used for excitation, and a fluorescence signal in the range of 410-500 nm was collected; and in the red channel, light of 561 nm was used for excitation, and a fluorescence signal in the range of 570-750 nm was collected. […] The results are shown in FIG. 14, where (a) and (g) are the bright-field images; (b) and (h) are the cell images with dye 1a; (c) and (i) are the cell images with the red mitochondrial marker; (d) and (j) are overlapped images with blue channel and red channel, (e) and (k) show the fluorescence intensity of the ROI line in the overlapped images; and (f) and (1) show colocalization assays, with a colocalization coefficient of 0.90 (L929) and 0.84 (HeLa) respectively.
(§2) The experiment method with dye 1b, dye 1c, dye 2a, dye 2b, and dye 2c (1 μM) is the same as that with dye 1a above, except that dye 1a is replaced. In FIG. 15, (a) and (g) are the bright-field images; (b) and (h) are the cell images with dye 1b; (c) and (i) are the cell images with the red mitochondrial marker; (d) and (j) are overlapped images with blue channel and red channel, (e) and (k) show the fluorescence intensity of the ROI line in the overlapped images; and (f) and (1) show colocalization assays, with a colocalization coefficient of 0.81 (L929) and 0.83 (HeLa) respectively. In FIG. 16, (a) and (g) are the bright-field images; (b) and (h) are the cell images with dye 1c; (c) and (i) are the cell images with the red mitochondrial marker; (d) and (j) are overlapped images with blue channel and red channel, (e) and (k) show the fluorescence intensity of the ROI line in the overlapped images; and (f) and (1) show a colocalization assay, both having a colocalization coefficient of 0.77. In FIG. 17, (a) and (g) are the bright-field images; (b) and (h) are the cell images with dye 2a; (c) and (i) are the cell images with the red mitochondrial marker; (d) and (j) are overlapped images with blue channel and red channel, (e) and (k) show the fluorescence intensity of the ROI line in the overlapped images; and (f) and (1) show colocalization assays, with a colocalization coefficient of 0.79 (L929) and 0.80 (HeLa) respectively. In FIG. 18, (a) and (g) are the bright-field images; (b) and (h) are the cell images with dye 2b; (c) and (i) are the cell images with the red mitochondrial marker; (d) and (j) are overlapped images with blue channel and red channel, (e) and (k) show the fluorescence intensity of the ROI line in the overlapped images; and (f) and (1) show colocalization assays, with a colocalization coefficient of 0.85 (L929) and 0.79 (HeLa) respectively. In FIG. 19, (a) and (g) are the bright-field images; (b) and (h) are the cell images with dye 2c; (c) and (i) are the cell images with the red mitochondrial marker; (d) and (j) are overlapped images with blue channel and red channel, (e) and (k) show the fluorescence intensity of the ROI line in the overlapped images; and (f) and (1) show colocalization assays, with a colocalization coefficient of 0.82 (L929) and 0.84 (HeLa) respectively.
Dye 4 was formulated into a mother liquor in DMSO, and then added to a conventional cell culture medium to give a concentration of dye 4 in the cell culture medium of 1 μM. HeLa cells were co-cultured for 10 min in an incubator at saturated humidity, 37° C., and 5% CO2. […]

L929 cells = test: as above; assay type: cell-based; conditions: dye 1 μM; for mitochondria labeling ability (blue mitochondrial marker): L929 (normal) and HeLa (cancer) cells, vs Mito Tracker Red CMXRos; for colocalization coefficient: L929 cells, vs Mito Tracker Red CMXRos (100 nm), blue and red channel
Description: as §1, §2

| SMILES | maximum absorption wavelength (ultraviolet-visible absorption spectrum) [1] | maximum emission wavelength (fluorescence spectrum) [1] | colocalization coefficient (HeLa cells) | mitochondria labeling ability (blue mitochondrial marker) (L929 cells) | colocalization coefficient (L929 cells) | overlap with the red mitochondrial marker (HeLa cells; green and red channel) |
| --- | --- | --- | --- | --- | --- | --- |
| CCN(CC)c1ccc2c(C)c(-c3ccc4[nH]ncc4c3)c(=O)oc2c1 [dye 1a] | 378 nm | 452 nm | 0.84 | mitochondria labeling ability in both normal cells and cancer cells | 0.90 |  |
| CC1=CC(C)=[N+]2C1=C(c1ccc(-c3ccc4[nH]ncc4c3)cc1)c1c(C)cc(C)n1[B-]2(F)F [dye 4] | 501 nm | 515 nm |  |  |  | cannot be overlapped well with the red mitochondrial marker |
| CCN(CC)c1ccc2c(C)c(-c3cnc4[nH]ncc4c3)c(=O)oc2c1 [dye 1c] | 385 nm | 454 nm | 0.77 | mitochondria labeling ability in both normal cells and cancer cells | 0.77 |  |
| CCCCN1C(=O)c2cccc3c(-c4ccc5[nH]ncc5c4)ccc(c23)C1=O [dye 2a] | 364 nm | 480 nm | 0.80 | mitochondria labeling ability in both normal cells and cancer cells | 0.79 |  |
| CCCCN1C(=O)c2cccc3c(-c4cnc5[nH]ccc5c4)ccc(c23)C1=O [dye 2b] | 360 nm | 458 nm | 0.79 | mitochondria labeling ability in both normal cells and cancer cells | 0.85 |  |
| CCN(CC)c1ccc2c(C)c(-c3cnc4[nH]ccc4c3)c(=O)oc2c1 [dye 1b] | 382 nm | 485 nm | 0.83 | mitochondria labeling ability in both normal cells and cancer cells | 0.81 |  |
| CCCCN1C(=O)c2cccc3c(-c4cnc5[nH]ncc5c4)ccc(c23)C1=O [dye 2c] | 356 nm | 441 nm | 0.84 | mitochondria labeling ability in both normal cells and cancer cells | 0.82 |  |
